A short description of series [1]: UV absorbance spectra in water-dioxane mixtures (D50). Conditions: dioxane-H2O mixture (v/v: 90/10-10/90); dielectric constant at half-maximal zwitterion absorbance. It is filed as physicochemical. The text has this: The inventors' efforts to improve the permeability and fluorogenicity of rhodamine derivatives for live-cell imaging focused on increasing the propensity of rhodamines to form the spirocyclic, non-fluorescent form without affecting the spectroscopic properties of the parental molecule. The inventors initially considered replacing the carboxylic acid responsible for formation of the spirolactone with an amide. However, such rhodamine derivatives have been reported to strongly favor spirolactams at physiological pH, making them unsuitable for live-cell imaging. The inventors therefore attempted to destabilize the spirolactam by attaching different electron-withdrawing groups to the underlying amides. Specifically, the inventors converted 6-carboxytetramethylrhodamine (6-TAMRA), a widely used fluorophore with good photophysical properties, into the corresponding acyl cyanamide (132), acyl sulfonamide (133) and acyl sulfamide (134 and 135), (FIG. 32c). The acyl cyanamide of rhodamine B was previously reported to exist as a fluorescent zwitterion at physiological pH. Acyl sulfonamides and acyl sulfamides are used in medicinal chemistry as anionic pharmacophores. Amides 132-135 were prepared in three simple steps from commercially available 6-TAMRA (FIG. 32c). To investigate the propensity of these amides to form the corresponding spirolactams, the inventors measured their absorbance spectra in water-dioxane mixtures with […]. The equilibrium between the zwitterionic and spirocyclic form can then be characterized by the D50 value, which is defined as the dielectric constant at which absorbance of the fluorescent zwitterion is decreased by half compared to the highest recorded absorbance value measured in dioxane-water mixtures. […] In comparison, the D50 value of TAMRA is around 10 showing that in aqueous solution TAMRA exists predominantly in its open form and TAMRA-based probes are usually not fluorogenic. The measured D50 values of amides 132-135 ranged from 32 to around 60 (FIG. 32d), which indicates the potential of these fluorophores for the generation of permeable and fluorogenic probes. […] The possibility to tune the equilibrium between the open and closed form of the fluorophore by varying the substituents on the amide is an important feature of this approach.
Measurements of UV Absorbance Spectra in Water-Dioxane Mixtures
Solutions of 5 μM Rhodamine B, RhB-CH3 (201, Z=CH3), RhB-Ben (201, Z=CH2Ph), RhB-CN (201, Z=CN), RhB-SCH3 (115), RhB-SNH2 (116), RhB-SNMe2 (117), RhB-CONH2 (118), WS1-SCF3, (119) WS1-SCH3 (120), WS1-CN (121), WS1-SNH2 (122), WS1-SO (123), WS1-UREA (124) in water-dioxane mixtures containing 10%, 20%, 30%, 40%, 50%, 60%, 70%, 80% and 90% of dioxane (by volume) were prepared. The absorbance spectra were recorded using a Spark® microplate reader (Tecan). The spectra were integrated from 400 to 700 nm for Rhodamine B-based fluorophores and from 350 to 750 nm for WS1-based fluorophores using the software Prism 7. Normalized integrals were plotted against dielectric constant of water-dioxane mixture.

A short description of series [2]: UV-Vis and fluorescence spectroscopy of free dye or probe in buffer or SDS. As to conditions: for Φ / ε^SDS: 0.1% SDS in HEPES buffer (pH 7.3); for ε: HEPES buffer (pH 7.3). It is filed as physicochemical. On the procedure:
UV-Vis and Fluorescence Spectroscopy
Spectroscopy was performed using 96-well plate (Thermo Fisher) with optical bottom. All measurements were taken at ambient temperature (25±2° C.). Absorption and fluorescence spectra were recorded on Spark® microplate reader (Tecan). Maximum absorption wavelength (λabs), and maximum emission wavelength (λem) were taken in 10 mM HEPES, pH 7.3 buffer unless otherwise noted; reported values for ε are averages (n=3). Normalized spectra are shown for clarity.
(§1) SDS (10% in 10 mM HEPES) was added with dilution of 100 folds as a control group. Absorbance and fluorescence measurements were performed in 96-well plate (Thermos Fisher) with optical bottom.

A further series deals with SNAP-Halo-tag. In words: Increase in absorbance and fluorescence on binding to SNAP-HaloTag protein in vitro. It is filed as biochemical. As to conditions: for Φ / ε^protein / λabs / λem: binding with SNAP-Halo-tag; for F/F0: ± s.e.m.; for increase in absorbance / increase in fluorescence intensity: upon binding to HaloTag, in vitro. On the procedure:
Measurement of Increase in Absorbance and Fluorescence.
SNAP-HaloTag protein were used as a 85 μM-200 μM solution in 75 mM NaCl, 50 mM TRIS-HCl, pH 7.4 with 50% v/v glycerol (TBS-glycerol). SNAPTag and HaloTag based fluorogenic probes were diluted to 1.0-2.0 μM in 10 mM HEPES, pH 7.3. Then an aliquot of SNAPTag/HaloTag protein (1.5-2.0 equiv) was added and the resulting mixture was incubated until consistent absorbance signal was observed (˜60 min).
as §1

The test system of series [3] is U2OS FlpIn Halo-SNAP-NLS expressing cells. In words: No-wash live-cell confocal imaging, nuclear versus cytosol signal. Format: cell-based. As to conditions: for Fnuc./Fcyt.: average ratio between nuclear signal (U2OS FlpIn Halo-SNAP-NLS expressing cells) and cytosol signal (normal U2OS cell), ± s.e.m.; for nuclei to cytosol signal ratio (Fnuc/Fcyt): no-wash live-cell imaging, 250 nM for MaP555-SNAP and MaP700-Halo; for time to staining / saturation / completion of labeling: nuclear localized HaloTag in U2OS cells, 250 nM for MaP510-Halo and MaP700-Halo. The text has this:
Self-labeling protein tags such as SNAP-tag and HaloTag are an efficient approach to attach synthetic fluorophores to proteins in living cells. The main challenge when using these tags for live-cell imaging is the low cell permeability of most fluorescent probes used for labeling and high background signal resulting from their unspecific binding. SNAP-tag fusion proteins can be specifically labeled with different fluorophores using appropriate O^6-benzlyguanine derivatives. A 6-TAMRA based probe (150) for SNAP-tag has been previously introduced for live-cell imaging, but its low cell-permeability and lack of fluorogenicity requires the use of high concentrations (5 μM) and repeated washing steps to remove excess and non-specifically bound probe. To address these problem, the inventors coupled fluorophores 132-135 to O^6-benzylguanine to obtain probes 152, 154, 156, and 158. […] The inventors then examined the performance of probes 150, 152, 154, 156, and 158 in live-cell imaging, in which U2OS cells stably expressing a nuclear localized SNAP-Halo fusion protein were co-cultured with regular U2OS cells not expressing any protein tags. […] Furthermore, the kinetics of labeling of nuclear localized SNAP-tag with MaP555-SNAP were much faster than those of control […]. The inventors then prepared the corresponding 6-TAMRA-based probes 151, 153, 155, 157, and 159 for HaloTag. As for SNAP-tag, the probe with the largest enhancement in absorbance (16-fold) and fluorescence intensity (35-fold) in in vitro assays was based on the N,N-dimethylsulfamide derivative 159 (abbreviated as MaP555-Halo in the following). […] The excellent performance of MaP555-SNAP and MaP555-Halo in live-cell imaging experiments support the inventors' assumption that establishing a dynamic equilibrium between the fluorescent zwitterion and the more hydrophobic spirolactam enables the generation of highly cell-permeable and fluorogenic probes for live-cell imaging.
Generation of U2OS FlpIn Halo-SNAP-NLS Cell Lines
The Flp-In™ System (ThermoFisher Scientific) was used to generated U2OS FlpIn Halo-SNAP-NLS expressing cells. pcDNA5-FRT-Halo-SNAP-NLS and pOG44 were co-transfected into the host cell line U2OS FLpIn (Malecki et al. Molecular and Cellular Biology 26, 4642 (2006)). Homologous recombination between the FRT sites in pcDNA5-FRT-Halo-SNAP-NLS and on the host cell chromosome, catalysed by the Flp recombinase expressed from pOG44, produced the U2OS FlpIn Halo-SNAP-NLS stably expressing cells.
Live-Cell Confocal Imaging
U2OS FlpIn Halo-SNAP-NLS expressing cells were grown in 96-well plate (Thermos Fisher) with optical bottom at 37° C. in a humidified 5% (vol/vol) CO2 environment. 50-500 nM probes and 2 μM verapamil were added and incubated for 1 h in DMEM media (Evrogen) containing 10% FBS. The cells were directly used to image without washing. Meanwhile, another group was imaged after being washed 2 times for 5 min with 1× phosphate buffered saline (PBS, pH 7.4) and DMEM supplemented with 10% FBS. Imaging was performed using Leica TCS SP8 confocal microscope. TMR- and Rhodamine B—, and Rhodamine 110-based probes were excited at 540 nm and the fluorescence signal was collected from 560-700 nm. Semi-Rhodamine-based probes were excited at 650 nm and the fluorescence signal was […] from 670-760 nm. Images were processed with Fiji (http://fiji.sc/wiki/index.php/Fiji) to obtain MIP (maximum intensity projections)

Where [4] appears, read: ratio of fluorescence intensities at 635 nm in the presence and absence of SNAP-Halo-tag.

Marks after values point to notes of the source that are not given here.

As for `Cl.N=c1ccc2c(-c3ccccc3C(=O)O)c3ccc(N)cc3oc-2c1` [R110, Rhodamine 110, reference compound], the D50 in series [1] was determined as 15.

As to `CN(C)c1ccc2c(c1)Oc1cc(N(C)C)ccc1C21c2cc(C(=O)NCCOCCOCCCCCCCl)ccc2C(=O)N1S(=O)(=O)N(C)C` [compound 159], in series [2], the Φ is given as 0.63, the “ε^SDS” value is 92,000 M^−1cm^−1 and the ε was 5,200 M^−1cm^−1. Also, in the series on SNAP-Halo-tag, the Φ came out at 0.54, the “ε^protein” value is 87,000 M^−1cm^−1, the λabs turned out to be 558 nm and the λem is 578 nm. Also, in the series on SNAP-Halo-tag, the increase in absorbance was found to be 16 fold and the “increase in fluorescence intensity” value is recorded as 35 fold. The F/F0 in the series with SNAP-Halo-tag (ratio of fluorescence intensities at 580 nm in the presence and absence of SNAP-Halo-tag) is given as 35 ± 2.3^e. The “signal and background in no-wash live-cell imaging” value in series [3] (U2OS cells, no washing) was “much lower background signal”. Besides, the Fnuc./Fcyt. in series [3] is reported as 18 ± 2.9^f. Also, the “intracellular kinetics of labeling relative to control probe” value in series [3] (nuclear localized SNAP-tag or HaloTag in U2OS cells) was “about two-fold faster”.

For `CN(C)c1ccc2c(c1)C(C)(C)c1cc(N(C)C)ccc1C21c2cc(C(=O)NCCOCCOCCCCCCCl)ccc2C(=O)N1C#N` [compound 161], in series [2], the Φ was found to be 0.72, the “ε^SDS” value is reported as 70,000^c M^−1cm^−1 and the ε was 1,500 M^−1cm^−1. Besides, in the series with SNAP-Halo-tag, the Φ stood at 0.53, the “ε^protein” value was 144,000 M^−1cm^−1, the λabs was determined as 618 nm and the λem came out at 635 nm. Also, the F/F0 in the series with SNAP-Halo-tag (setting [4]) was 112 ± 3.8^e. Further, in series [3], the Fnuc./Fcyt. is on record as 19 ± 1.2^f.

`CN(C)c1ccc2c(c1)C(C)(C)c1cc(N(C)C)ccc1C21c2cc(C(=O)NCCOCCOCCCCCCCl)ccc2C(=O)N1S(C)(=O)=O` [compound 163]: in series [2], the Φ was determined as 0.76, the “ε^SDS” value is given as 45,000^c M^−1cm^−1 and the ε is recorded as 1,600 M^−1cm^−1. Also, in the series on SNAP-Halo-tag, the Φ worked out at 0.50, the “ε^protein” value is recorded as 121,000 M^−1cm^−1, the λabs was 618 nm and the λem is 635 nm. The F/F0 in the series on SNAP-Halo-tag (setting [4]) is 179 ± 14^e. Moreover, in series [3], the Fnuc./Fcyt. was 24 ± 1.8^f.

With `CN(C)c1ccc2c(c1)C(C)(C)c1cc(N(C)C)ccc1C21c2cc(C(=O)NCCOCCOCCCCCCCl)ccc2C(=O)N1S(N)(=O)=O` [compound 165], in series [2], the “ε^SDS” value is 8,300^c M^−1cm^−1 and the ε worked out at 440 M⁻¹ cm⁻¹. Further, in the series on SNAP-Halo-tag, the Φ was 0.58^b/—, the “ε^protein” value was 101,000 M^−1cm^−1, the λabs was found to be 618 nm and the λem stood at 635 nm. Besides, the F/F0 in the series with SNAP-Halo-tag (setting [4]) is listed as 611 ± 42^e. Besides, the Fnuc./Fcyt. in series [3] is listed as 30 ± 4.5^f.

Regarding `CN(C)c1ccc2c(c1)C(C)(C)c1cc(N(C)C)ccc1C21c2cc(C(=O)NCCOCCOCCCCCCCl)ccc2C(=O)N1S(=O)(=O)N(C)C` [compound 167], in series [2], the “ε^SDS” value was 7,200^c M^−1cm^−1 and the ε amounted to 260 M⁻¹ cm⁻¹. Moreover, in the series on SNAP-Halo-tag, the Φ is recorded as 0.61^b/—, the “ε^protein” value is reported as 107,000 M^−1cm^−1, the λabs stood at 618 nm and the λem was 635 nm. In addition, the “increase in fluorescence intensity” value in the series on SNAP-Halo-tag is 1000 fold. The F/F0 in the series with SNAP-Halo-tag (setting [4]) is reported as 1000 ± 44^e. Also, in series [3], the Fnuc./Fcyt. was 58 ± 3.9^f and the “time to staining / saturation / completion of labeling” value was no more than 5 min. The “nuclei to cytosol signal ratio (Fnuc/Fcyt)” value in series [3] (U2OS cells) amounted to 58.

`CN1CCc2cc3c(cc21)[Si](C)(C)c1cc2c(cc1C31c3cc(C(=O)NCCOCCOCCCCCCCl)ccc3C(=O)N1C#N)CCN2C` [compound 168]: in series [2], the Φ was determined as 0.18, the “ε^SDS” value is recorded as 12,000^c M^−1cm^−1 and the ε was 340 M⁻¹ cm⁻¹. For the same molecule, in the series on SNAP-Halo-tag, the Φ was found to be 0.24, the “ε^protein” value is 52,000 M^−1cm^−1, the λabs was 700 nm and the λem was 720 nm. Further, in the series on SNAP-Halo-tag, the increase in absorbance turned out to be 150 fold and the “increase in fluorescence intensity” value is recorded as 650 fold. Further, in the series with SNAP-Halo-tag (ratio of fluorescence intensities at 720 nm in the presence and absence of SNAP-Halo-tag), the F/F0 is 650 ± 5.8^e. For the same molecule, in series [3], the Fnuc./Fcyt. is on record as 47 ± 3.4^f and the “time to staining / saturation / completion of labeling” value was no more than 10 min. Moreover, in series [3] (U2OS cells), the “nuclei to cytosol signal ratio (Fnuc/Fcyt)” value is 47.

The record behind these values is patent US12326385B2, “Cell-permeable fluorogenic fluorophores” (MAX-PLANCK-GESELLSCHAFT ZUR FÖRDERUNG DER WISSENSCHAFTEN E. …, priority 2018, dated 2025).
